Square brackets hold non-standard residues; d marks the D form. Ends that are not written are not given here. pS = N[C@@H](COP(=O)(O)O)C(=O)O

Data set [1] relates to mouse osteoblast strain MC3T3-E1. Briefly: Examination of in vitro calcification inhibitory activity (von Kossa staining of matrix calcification). It counts as cell-based. Particulars: relative to Comparative Example 2 set at 100, MC3T3-E1, 3 mM βGP, 24 hours. How it is done: A mouse osteoblast strain MC3T3-E1 was cultured in a bone differentiation medium (α MEM (Eagle’s minimum essential medium, alpha modification) + 50 µg/mL ascorbic acid, 10% fetal calf serum) to form osteoid-like nodules. In order to induce calcification, 3 mM β-glycerophosphoric acid (hereinafter, “βGP”) was added together with a test substance to the medium. The strain was cultured for 24 hours after the addition of the test substance, and cells were washed with PBS, immobilized with 10% neutral buffered formalin, and then subjected to von Kossa staining. The matrix calcification was evaluated by measurement of calcium spots stained with von Kossa in the extracellular matrices of alkaline phosphatase (ALP)-stained positive cells, which were osteoblastic markers, with a stereoscopic microscope.

Data set [2] concerns caALK2Q207D mice. Briefly: Evaluation of drug efficacy in FOP model (µCT of leg region). It counts as in vivo. Particulars: Ad-Cre intramuscular, intraperitoneal 0.03 mg/mouse/day, day 6. How it is done: Cre recombinase recombinant adenovirus (Ad-Cre, manufactured by Vector Biolabs) was intramuscularly administered (2 × 10^7 pfu) to the crural muscles (triceps muscles) of 7-day-old caALK2Q207D mice (Paul B Yu and the 14 others, “BMP type I receptor inhibition reduces heterotopic ossification” Nat Med, 2008, 14(12), 1363-1369). Next day, Example 5 was intraperitoneally administered (0.03 mg/mouse/day). On day 6, the leg region was immobilized with 4% para-formaldehyde PBS, and µCT images were acquired.

Data set [3] in a line: Evaluation of stability: residual rate in mouse serum by HPLC. It counts as in vitro ADME. Particulars: C57BL/6 mouse serum, 37° C., 7 days or 14 days. How it is done: (§1) The amount of 1/20 to 1/25 of Comparative Example 2 or Example 5 (each 100 mM) was added to PBS or C57BL/6 mouse serum, and incubated at 37° C. for 7 days or 14 days. In measurement using the serum, 4 M perchloric acid (PCA) of which the amount was equal to the amount of a sample was added, and the resultant was diluted to 2-fold with MQ water and left to stand on ice for 5 minutes. The supernatant obtained by centrifugation for 2 minutes was subjected to HPLC (ODS column and 0.1% TFA/ acetonitrile). The residual rates of the test substances were calculated in a case in which the peak area of a sample adjusted before use was set at 100.

Data set [4] deals with Enpp1 mutated mice (C57BL/6J-Enpp1asj/asj). Briefly: Evaluation of drug efficacy in GACI model (aortic calcification score). It counts as in vivo, mouse. To be noted: high phosphorus diet, continuous intravenous administration for 2 weeks by osmotic pump. An excerpt:
The biallelic mutation of an Enpp1 gene is observed at 75% of GACI. Thus, the drug efficacy of the peptide was examined using Enpp1 mutated mice. Fertilized eggs from the Enpp1 mutated mice (C57BL/6J-Enpp1^asj/asj) were transplanted into ICR mice, and bred with a high phosphorus diet (AIN-93G-based, 0.4% Ca, 0.85% P, 0.04% Mg) immediately after deliveries. Male Enpp1^asj mice were weaned from the mothers 4 weeks after the births, and fed with a high phosphorus diet during an experimental period. […] A catheter was indwelled in the right cervical vein 6 to 7 weeks after the birth, and Example 5 was continuously administered for 2 weeks by an osmotic pump (manufactured by Altez). The thoracic (ventral) aorta was harvested, then immobilized with 4% para-formaldehyde PBS, washed, and then stained with alizarin red 0.5% KOH. The tissue was washed, and then preserved in 70% EtOH. For the obtained tissue, the calcification of the alizarin red-positive region of the thoracic aorta was scored (maximum value of 3) under the stereoscopic microscope.

Data set [5] can be described thus: Evaluation of stability: residual rate in PBS by HPLC. It counts as physicochemical. Particulars: 37° C., 7 days or 14 days, HPLC peak area, sample before use set at 100. How it is done:
as §1

Data set [6] relates to thoracic aorta. Briefly: Calcification of cultured thoracic aorta rings under high phosphate load (headed 'in vivo calcification inhibitory activity'). Particulars: for Calcification of thoracic aorta tissue (alizarin red staining): versus PBS solvent. The class given is cell-based, C57BL/6 mouse. How it is done:
The thoracic aorta was harvested from a C57BL/6 mouse (10-week-old male), and then cut into ring-shaped portions (2 to 3 mm), which were cultured in 10% FCS DMEM (Dulbecco’s Moodified Eagle’s Medium, high glucose). From the next day, the peptides were added, and the resultants were loaded together with phosphoric acid having a high concentration (sodium phosphate, final concentration of 3 mM), and cultured for 10 days. The tissues immobilized with PFA were stained with alizarin red, and the vessel walls were incised and opened, and observed with a stereoscopic microscope. Moreover, the contents of calcium in liquid extracts obtained by decalcifying the vessels, cultured in a similar manner, with 10% formic acid for 24 hours were measured using a calcium quantification kit (Calcium C-test Wako, manufactured by Wako Pure Chemical Industries, Ltd.).

Data set [7] relates to ddY mice. The experiment in a line: Evaluation of safety, influence on osteogenesis (4-week continuous intravenous administration). It counts as in vivo, mouse. To be noted: 4 weeks. How it is done: Thus, toxicity, particularly an influence on osteogenesis was examined using Comparative Example 2, as described below.
Catheters were indwelled in the jugular veins of 6-week-old ddY mice, and Comparative Example 2 was continuously administered at a high dose (1 mg/mouse/day) or low dose (0.1 mg/mouse/day) for 4 weeks using an osmotic pump (manufactured by Alzert). The low dose is 10 or more times as much as an effective drug efficacy concentration. Evaluation items were set to a body weight, the amount of intake of a food and drink, blood biochemistry (including calcium and phosphoric acid), the weights of principal organs, and histopathology. Moreover, bone structures were evaluated by µCT, and bone strengths were evaluated in a three-point bending test.

Setting [8] is: aorta rings, sodium phosphate 3 mM, cultured 10 days.

As for “DDSSESSDSGSSSESD (SEQ ID NO:12) (DDSSESSDSG[pS]S[pS]E[pS]D) [Example 1]”, the “Calcification inhibitory activity (relative)” value in data set [1] stood at 100.
“Ac-SSESSESGSSSESD(C)-NH2 (N-Ac/chloroacetyl thioether cyclised, added C-terminal Cys amide; Phosphopeptide; MOD_RES (9)..(9) PHOSPHORYLATION; MOD_RES (11)..(11) PHOSPHORYLATION; MOD_RES (13)..(13) PHOSPHORYLATION) [Example 5]”: the “Calcification in leg region (µCT images)” value in data set [2] was “no calcification was confirmed”. Also, in data set [1], the “Calcification inhibitory activity (relative)” value is recorded as 500-1000<. For the same substance, in data set [3], the “Residual rate in mouse serum” value was “inhibited in comparison with Comparative Example 2”. In addition, in data set [4], the “Vascular calcification (calcification score of thoracic aorta, maximum value of 3)” value was “inhibited”. In addition, the “Residual rate in PBS” value in data set [5] is “not decreased”. Besides, in data set [6] (aorta rings loaded with phosphoric acid (Pi), decalcified with 10% formic acid, compared with Comparative Example 2), the “Calcium content per protein” value is given as “less than that in Comparative Example 2”. Further, in data set [6] (setting [8]), the “Calcification inhibitory effect compared with Comparative Example 2 (alizarin red staining)” value was “superior to that in Comparative Example 2” and the “Calcification of thoracic aorta tissue (alizarin red staining)” value is recorded as “calcification was inhibited”.
As to “RDDSSESSDSGSSSESDGD (SEQ ID NO:11) (RDDSSESSDSG[pS]S[pS]E[pS]DGD) [Comparative Example 2, reference compound]”, in data set [7] (1 mg/mouse/day or 0.1 mg/mouse/day continuous intravenous), the “Abnormal findings in body weight, intake of food and drink, blood biochemistry, weights of principal organs, histopathology” value is given as “Any abnormal findings were not observed”. Further, the “Bone volume (BV), bone mineral content (BMC), bone mineral density (BMD), bone strength (maximum load) versus PBS” value in data set [7] (high and low doses, µCT and three-point bending test) is recorded as “no significant differences”. Further, in data set [1], the “Calcification inhibitory activity (relative)” value is reported as 100. Moreover, in data set [5], the “Residual rate in PBS” value was “decreased over time”. Further, in data set [6] (setting [8]), the “Calcification of thoracic aorta tissue (alizarin red staining)” value was “calcification was inhibited”.
With “SSESSESGSSSESD (SEQ ID NO:9) (SSESSESG[pS]S[pS]E[pS]D) [Example 3]”, in data set [1], the “Calcification inhibitory activity (relative)” value is 200<.
As for “SSESSDSGSSSESD (SEQ ID NO:8) (SSESSDSG[pS]S[pS]E[pS]D) [Example 2]”, the “Calcification inhibitory activity (relative)” value in data set [1] is given as 100.
Still for that read-out and setting: to “RDDSSESSDSGSSSESDGD (SEQ ID NO:10) (ASARM peptide) [Comparative Example 1, reference compound]” belongs 0; to “SSESSESGSSSESD (SEQ ID NO:13) (SSESSESGSS[pS]E[pS]D) [Example 4]”, 110<.

(Values after US20230272009A1, “Peptide, Peptide Salt, Pharmaceutical Composition and Biological Tissue Calcification Inhibitor” (Hiroshima University, priority 2020, published 2023).)
